Measurements reported in patent publication US11918561B2, “Treatment of breast cancer using combination therapies comprising GDC-9545 and a CDK4/6 inhibitor” (Genentech, Inc., priority 2020, dated 2024).
One block for each molecule: values may come before it.

Columns and labels:
[1] = Pharmacokinetics of GDC-9545 and palbociclib in patients; format: in vivo, human
Text: Pharmacokinetics. […] Palbociclib PK was not altered when given with GDC-9545 and was consistent with reported values.

[2] = test system: patients with ER+ (HER2−) metastatic breast cancer; conditions: human, in vivo
Text: A graded adverse event refers to the severity grading scale as established for by NCI CTCAE. In one embodiment, the adverse event is graded in accordance with the table below.
No prior treatment with CDK4/6i was allowed in patients receiving palbociclib.

[3] = test system: ESR1 mutant allele (ctDNA); assay: ctDNA ESR1 mutant allele frequency, change from baseline; format: in vivo, human; conditions: all patients in both cohorts (n=26)
[4] = test system: ER pathway signature; assay: Pharmacodynamics: ER pathway signature score in paired biopsies; format: in vivo, human; conditions: 8/12; pre- and on-treatment biopsies (n=12); cohort not stated
Text: An “ER pathway activity score” as used herein, refers to a numerical value that reflects mathematical difference between the E2-induced score and the E2-repressed score.
Breast cancer is a heterogeneous disease with many distinct subtypes as defined by molecular signatures and a diverse array of mutational profiles. Patients described herein can be tested for ER+ HER2− laBC or mBC using diagnostic methods, or kits to inform treating or predict of responsiveness of a pateint to the combination therapies described herein. In one embodiment, a patient can be tested by determining an ER pathway activity score such as those described in US Patent Application Publication 20200082944. In some embodiments, a patient sample is taken and tested to determine an ER pathway activity score. The score can be calculated using a 41-gene signature by subtracting an E2-repressed score (as determined from the average z-scored expression of genes comprising BAMBI, BCAS1, CCNG2, DDIT4, EGLN3, FAM171B, GRM4, IL1R1, LIPH, NBEA, PNPLA7, PSCA, SEMA3E, SSPO, STON1, TGFB3, TP531NP1, and TP531NP2) from an E2-induced score (as determined from the average z-scored expression of genes set forth in AGR3, AMZ1, AREG, C5AR2, CELSR2, CT62, FKBP4, FMN1, GREB1, IGFBP4, NOSIAP, NXPH3, OLFM1, PGR, PPMIJ, […], RBM24, RERG, RET, SGK3, SLC9A3R1, TFF1, and ZNF703).

[5] = test system: patients with ER+ (HER2−) metastatic breast cancer; assay: Reason for discontinuation of study treatment; format: in vivo; conditions: Cohort A n = 40, Cohort B n = 48
[6] = test system: ER+ (HER2−) metastatic breast cancer; assay: Clinical activity (clinical benefit, response, PFS; RECIST v1.1); format: in vivo, human
Text: “Objective response rate” or “ORR” refers the percentage of patients with a confirmed complete response or partial response on two consecutive occasions ≥4 weeks apart, as determined by the investigator according to RECIST v1.1
“Progression free survival” or “PFS” refers to the time from enrollment to the date of the first recorded occurrence of disease progression, as determined by the investigator using RECIST v1.1 or death from any cause, whichever occurs first.
“Clinical benefit rate” or “CBR” refers to the percentage of patients with stable disease for at least 24 weeks or with confirmed complete or partial response, as determined by the investigator according to RECIST v1.1.
Clinical Activity. In Cohort A 22/40 patients (55%) derived clinical benefit defined as patients with CR, PR or first occurrence of progressive disease observed on or after 24 weeks.

[7] = target: T1, ER (Homo sapiens, UniProt P03372); assay: Pharmacodynamics: ER protein level in paired pre- and on-treatment biopsies; format: in vivo; conditions: 10/12; pre- and on-treatment biopsies (n=12); cohort not stated
T1 construct: from tissue; host or cells: patients' tumour biopsies (pre- and on-treatment)
T1 sequence (P03372 1-595): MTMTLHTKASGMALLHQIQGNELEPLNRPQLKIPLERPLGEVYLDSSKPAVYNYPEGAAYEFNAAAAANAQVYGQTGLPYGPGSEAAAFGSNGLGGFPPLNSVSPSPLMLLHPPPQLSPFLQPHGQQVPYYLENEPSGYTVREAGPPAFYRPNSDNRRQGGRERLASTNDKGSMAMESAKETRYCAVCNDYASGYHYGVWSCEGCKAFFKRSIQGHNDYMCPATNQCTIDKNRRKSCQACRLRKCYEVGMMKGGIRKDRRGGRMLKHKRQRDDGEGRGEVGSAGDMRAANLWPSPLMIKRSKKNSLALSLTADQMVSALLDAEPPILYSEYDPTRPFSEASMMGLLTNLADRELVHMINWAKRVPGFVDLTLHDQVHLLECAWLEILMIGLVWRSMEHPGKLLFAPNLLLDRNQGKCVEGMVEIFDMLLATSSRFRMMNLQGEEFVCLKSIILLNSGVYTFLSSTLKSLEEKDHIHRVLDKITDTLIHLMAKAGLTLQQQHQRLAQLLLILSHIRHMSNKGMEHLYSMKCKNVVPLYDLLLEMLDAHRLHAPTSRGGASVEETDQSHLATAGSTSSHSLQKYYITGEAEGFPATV

[8] = test system: PR; assay: Pharmacodynamics: PR protein level in paired pre- and on-treatment biopsies; format: in vivo, human; conditions: 7/8, cohort not stated
[9] = Cohort A n = 40, Cohort B n = 48
[10] = of 31 (Cohort A) and 45 (Cohort B) patients with measurable disease

Palbociclib PK when given with GDC-9545 ([1]; consistent with reported values): not altered
SMILES: CC(=O)c1c(C)c2cnc(Nc3ccc(N4CCNCC4)cn3)nc2n(C2CCCC2)c1=O [Palbociclib, 6-acetyl-8-cyclopentyl-5-methyl-2-{[5-(piperazin-1-yl)pyridin-2-yl]amino}pyrido[2,3-d]pyrimidin-7(8H)-one, reference compound]

SMILES: C[C@@H]1Cc2c([nH]c3ccccc23)[C@@H](c2c(F)cc(NC3CN(CCCF)C3)cc2F)N1CC(F)(F)CO [GDC-9545, 3-((1R,3R)-1-(2,6-difluoro-4-((1-(3-fluoropropyl)azetidin-3-yl)amino)phenyl)-3-methyl-1,3,4,9-tetrahydro-2H-pyrido[3,4-b]indol-2-yl)-2,2-difluoropropan-1-ol]
Exposure of GDC-9545 in combination with palbociclib versus single agent GDC-9545 [1]: generally comparable
Bradycardia AEs reported, patients [2]: 8%
Grade 3 AEs related to GDC-9545 (others Grade 1-2) [2]: three Grade 3 events of fatigue, transaminase increased, and diarrhea
Heart rate (HR) changes upon completion of treatment [2]: returned to baseline
Patients who discontinued study treatment due to AEs [2]: No patients
Patients with an AE related to GDC-9545 [2]: 58%
Severity of bradycardia AEs [2]: all were Grade 1 and asymptomatic
Treatment-emergent AEs (TEAE) reported, patients [2]: 78%
ctDNA ESR1 mutant allele frequency [3]: Decreases from baseline
Reduced ER pathway signature scores, share of evaluable paired biopsies [4]: 67%
Reason for discontinuation: Death [5]: 1 (3%) patients (%)
Reason for discontinuation: Disease progression [5]: 22 (55%) patients (%)
Clinical benefit in patients with prior fulvestrant treatment ([6]; Cohort A 2/7, Cohort B 2/3): 29%
Clinical benefit in patients with detectable ESR1 mutations at enrollment ([6]; Cohort A 8/13, Cohort B 11/11): 62%
Patients who derived clinical benefit (CR, PR or first progressive disease on or after 24 weeks) ([6]; Cohort A 22/40, Cohort B 35/48): 55%
Median PFS [6, 9]: 7.8 months
Patients with an event of disease progression or death for PFS calculations [6, 9]: 55%
CBR ([6]; Table 3): 55%
ORR ([6]; Table 3): 13%
Clinical benefit ([6]; number of patients as printed): 40
Patients with confirmed response [6, 10]: 4
Patients with unconfirmed response [6, 10]: 4
Partial response ([6]; patients with measurable disease at baseline, Cohort A 4/31, Cohort B 14/45): 13%
Reduced ER protein levels, share of evaluable paired biopsies [7]: 83%
Reduced PR protein levels, share of evaluable paired biopsies [8]: 88%
